The target of one test is T1, MRE11 (Homo sapiens, UniProt P49959).
T1 sequence (P49959 1-708): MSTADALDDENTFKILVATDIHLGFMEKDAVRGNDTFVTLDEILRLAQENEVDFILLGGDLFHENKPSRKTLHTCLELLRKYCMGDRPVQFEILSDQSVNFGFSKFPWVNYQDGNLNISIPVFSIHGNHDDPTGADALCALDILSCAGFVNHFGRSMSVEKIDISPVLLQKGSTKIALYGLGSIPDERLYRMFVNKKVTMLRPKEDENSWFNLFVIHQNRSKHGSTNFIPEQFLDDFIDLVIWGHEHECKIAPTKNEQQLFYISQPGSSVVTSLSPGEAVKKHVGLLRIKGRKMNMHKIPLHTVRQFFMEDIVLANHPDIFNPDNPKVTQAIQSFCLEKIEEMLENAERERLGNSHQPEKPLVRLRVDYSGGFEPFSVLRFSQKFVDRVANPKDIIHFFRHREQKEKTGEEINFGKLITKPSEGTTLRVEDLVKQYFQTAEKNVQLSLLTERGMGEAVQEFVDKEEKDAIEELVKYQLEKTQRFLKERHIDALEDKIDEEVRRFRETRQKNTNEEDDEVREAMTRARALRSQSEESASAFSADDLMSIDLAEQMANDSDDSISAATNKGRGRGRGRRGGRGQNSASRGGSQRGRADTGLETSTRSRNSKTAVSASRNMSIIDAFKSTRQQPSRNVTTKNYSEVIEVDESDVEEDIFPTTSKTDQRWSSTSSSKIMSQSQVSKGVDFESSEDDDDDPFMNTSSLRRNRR
Nature of the test: HTS nuclease assay (cleavage of CY5/BBQ-quenched 5' overhang DNA substrate). In kind it is biochemical. The following applies: in vitro HTS nuclease assay; 18 nM MRE11, 40 nM DNA substrate; analysis at t=4 h. The procedure: DNA Substrate Preparation
The DNA substrate is prepared by mixing the oligonucleotides listed below in a 1:1 ratio to reach a final concentration of 6 μM in a buffer containing 50 mM Tris pH 7.5, 100 mM NaCl and 8 mM MgCl2.
This substrate is a 5′ overhang, which is a preferred substrate of MRE11. […] The fluorescence increases upon substrate cleavage by MRE11, when separation of the two labels occur.
The conditions of the assay are as follows:
Total reaction volume: 5 μL
DNA substrate concentration in the reaction: 40 nM
Inhibitor concentration range tested: 7 nM-50 μM
Each plate contains a series of high and low signal control wells, where no compound is added:
High signal: MRE11+DNA substrate
Low signal: DNA substrate only
These are used during data evaluation.
Two extra assay controls:
1) To check whether unwinding of DNA by the compounds alone occurs.
The DNA substrate [CY5+BBQ(650)] is mixed with the compounds with no protein present.
The CY5 single stranded oligo is mixed with the compounds with no protein present.
The layout of the plates is created by the in-house software (CZ-Openscreen Prague) and this information is transferred to the robotic HTS station.
The reaction is started by the addition of DNA and the reaction time is counted from that moment, including a 15 min delay. Ten timepoints are measured:
The assay data analysis was performed at t=4 h. This corresponds to the time when the reaction is close to its maximum.
The data analysis was performed using the in-house software to obtain IC50 for each compound.

Another test relates to DR-GFP U2OS cells. Description: HR assay (GFP fluorescence after I-SceI transfection, flow cytometry). To be noted: Homo sapiens, inhibitor at 25 μM, 72 hours after transfection. Type of test: cell-based. The procedure:
DR-GFP U2OS cells (Methods in Molecular Biology 2012, 920, 379.) were transfected with 2.5 μg of I-SceI-expressing pCAGGS vector and treated with the inhibitors at 25 μM concentration. 72 hours after the transfection, the cells were trypsinized and resuspended in 3% BSA in PBS. GFP fluorescence detection was carried out using a BD FACSVerse flow cytometer and data analyzed with FlowJo software.
In general terms: Flow cytometry measures light scatter and fluorescence of single cells or particles in a stream.

pIC50: −log10 of the molar value.

As to `N#C/C(=C\c1ccc(F)c(F)c1)C(=O)Nc1nc(-c2ccccc2)cs1` [Preparative Example 213, (E)-2-cyano-3-(3,4-difluorophenyl)-N-(4-phenylthiazol-2-yl)acrylamide], the pIC50 – broadly, −log10 of the IC50, conventionally taken in molar units – against MRE11 was 4.05 to 5.00. Further, the inhibition (in general, the share of the control response that was lost under treatment) at 25 µM in the test on DR-GFP U2OS cells was < 50%.

For the molecule `N#C/C(=C\c1ccc(O)c(O)c1)C(=O)Nc1nc(-c2cccnn2)cs1` [Preparative Example 186], the pIC50 against MRE11 was > 5.70. The inhibition at 25 µM in the test on DR-GFP U2OS cells is < 50%.

Consider `Cc1cc(C(C)(C)C)cc(C)c1-c1csc(NC(=O)/C(C#N)=C/c2ccc(O)c(O)c2)n1` [Preparative Example 246, (E)-N-(4-(4-(tert-butyl)-2,6-dimethylphenyl)thiazol-2-yl)-2-cyano-3-(3,4-dihydroxyphenyl)acrylamide], for which the negative-log IC50 (pIC50) at MRE11 was > 5.70. Further, the inhibition at 25 µM with DR-GFP U2OS cells is > 75%.

As to `N#C/C(=C\c1ccc(O)c(O)c1)C(=O)Nc1nc(-c2ccc3ccccc3c2)cs1` [Preparative Example 163, (E)-2-cyano-3-(3,4-dihydroxyphenyl)-N-(4-(naphthalen-2-yl)thiazol-2-yl)acrylamide], the pIC50 on MRE11 was > 5.70. For the same molecule, the inhibition at 25 µM with DR-GFP U2OS cells is > 75%.

`N#C/C(=C\c1ccc(O)c(O)c1)C(=O)Nc1nc(-c2ccncc2)cs1` [Preparative Example 188, (E)-2-cyano-3-(3,4-dihydroxyphenyl)-N-(4-(pyridin-4-yl)thiazol-2-yl)acrylamide]: the pIC50 at MRE11 is > 5.70. In addition, in the test with DR-GFP U2OS cells, the inhibition at 25 µM was in the range of 50 to 75%.

In turn, `N#C/C(=C\c1ccc(O)c([N+](=O)[O-])c1)C(=O)Nc1nc(-c2ccccc2)cs1` [Preparative Example 208, (E)-2-cyano-3-(4-hydroxy-3-nitrophenyl)-N-(4-phenylthiazol-2-yl)acrylamide] gave a negative logarithm of the IC50 (pIC50) against MRE11 of 4.05 to 5.00. In addition, in the test with DR-GFP U2OS cells, the inhibition at 25 µM is 50 to 75%.

Regarding `Cc1cccnc1-c1csc(NC(=O)/C(C#N)=C/c2ccc(O)c(O)c2)n1` [Preparative Example 239, (E)-2-cyano-3-(3,4-dihydroxyphenyl)-N-(4-(3-methylpyridin-2-yl)thiazol-2-yl)acrylamide], at MRE11, the pIC50 is > 5.70. For the same molecule, the inhibition at 25 µM in the test with DR-GFP U2OS cells is > 75%.

For `N#C/C(=C\c1ccc(O)c(-c2ccccc2)c1)C(=O)Nc1nc(-c2ccccc2)cs1` [Preparative Example 211, (E)-2-cyano-3-(6-hydroxy-[1,1′-biphenyl]-3-yl)-N-(4-phenylthiazol-2-yl)acrylamide], the negative-log IC50 (pIC50) against MRE11 is 4.05 to 5.00. For the same molecule, the inhibition at 25 µM in the test with DR-GFP U2OS cells was < 50%.

As for `N#C/C(=C\c1ccc(O)c(O)c1)C(=O)Nc1nc(C23CC4CC(CC(C4)C2)C3)cs1` [Preparative Example 174, (E)-N-(4-((1S,3s)-adamantan-1-yl)thiazol-2-yl)-2-cyano-3-(3,4-dihydroxyphenyl)acrylamide], the pIC50 at MRE11 was 5.00 to 5.70. Besides, in the test on DR-GFP U2OS cells, the inhibition at 25 µM fell in the range of 50 to 75%.

On MRE11, `CC(C)(C)c1cccc(-c2csc(NC(=O)/C(C#N)=C/c3ccc(O)c(O)c3)n2)c1` [Preparative Example 247, (E)-N-(4-(3-(tert-butyl)phenyl)thiazol-2-yl)-2-cyano-3-(3,4-dihydroxyphenyl)acrylamide] had a pIC50 of 5.00 to 5.70. In addition, in the test with DR-GFP U2OS cells, the inhibition at 25 µM is 50 to 75%.

Turning to `C#Cc1ccc(-c2csc(NC(=O)/C(C#N)=C/c3ccc(O)c(O)c3)n2)cc1` [Preparative Example 197, (E)-2-cyano-3-(3,4-dihydroxyphenyl)-N-(4-(4-ethynylphenyl)thiazol-2-yl)acrylamide], the pIC50 at MRE11 is > 5.70. Also, the inhibition at 25 µM with DR-GFP U2OS cells is > 75%.

With `N#C/C(=C\c1ccc(O)c(O)c1)C(=O)Nc1nc(-c2cccc(C#N)c2)cs1` [Preparative Example 180, (E)-2-cyano-N-(4-(3-cyanophenyl)thiazol-2-yl)-3-(3,4-dihydroxyphenyl)acrylamide], the pIC50 on MRE11 was > 5.70. The inhibition at 25 µM in the test on DR-GFP U2OS cells lay within 50 to 75%.

Regarding `N#CC(C(=O)Nc1nc(-c2ccccc2)cs1)=C(c1ccccc1)c1ccc(O)c(O)c1` (mixture of isomers) [Preparative Example 190, (E/Z)-2-cyano-3-(3,4-dihydroxyphenyl)-3-phenyl-N-(4-phenylthiazol-2-yl)acrylamide], the negative-log IC50 (pIC50) at MRE11 is > 5.70. In addition, the inhibition at 25 µM in the test with DR-GFP U2OS cells is > 75%.

As for `CC(=O)Nc1ccc(/C=C(\C#N)C(=O)Nc2nc(-c3ccccc3)cs2)cc1O` [Preparative Example 223, (E)-3-(4-acetamido-3-hydroxyphenyl)-2-cyano-N-(4-phenylthiazol-2-yl)acrylamide], the pIC50 on MRE11 is 4.05 to 5.00. The inhibition at 25 µM in the test with DR-GFP U2OS cells was < 50%.

As for `N#C/C(=C\c1ccc(O)c(O)c1)C(=O)Nc1nc2c(s1)CCCC2` [Preparative Example 191], the pIC50 at MRE11 was > 5.70. Also, the inhibition at 25 µM with DR-GFP U2OS cells is < 50%.

As for `N#C/C(=C\c1ccccc1F)C(=O)Nc1nc(-c2ccccc2)cs1` [Preparative Example 206, (E)-2-cyano-3-(2-fluorophenyl)-N-(4-phenylthiazol-2-yl)acrylamide], at MRE11, the pIC50 was 5.00 to 5.70. Also, the inhibition at 25 µM in the test with DR-GFP U2OS cells was < 50%.

Take `COc1ccc(-c2csc(NC(=O)/C(C#N)=C/c3ccc(O)c(O)c3)n2)cc1C1CC1` [Preparative Example 198, (E)-2-cyano-N-(4-(3-cyclopropyl-4-methoxyphenyl)thiazol-2-yl)-3-(3,4-dihydroxyphenyl)acrylamide]: the pIC50 against MRE11 is > 5.70. The inhibition at 25 µM with DR-GFP U2OS cells is > 75%.

`N#C/C(=C\c1ccc(O)c(O)c1)C(=O)Nc1nc(-c2cc3ccccc3o2)cs1` [Preparative Example 173, (E)-N-(4-(benzofuran-2-yl)thiazol-2-yl)-2-cyano-3-(3,4-dihydroxyphenyl)acrylamide]: at MRE11, the pIC50 was > 5.70. Moreover, the inhibition at 25 µM in the test with DR-GFP U2OS cells is > 75%.

`N#C/C(=C\c1ccc(O)c(O)c1)C(=O)Nc1nc(-c2ccc(-c3ccccc3)cc2)cs1` [Preparative Example 164, (E)-N-(4-([1,1′-biphenyl]-4-yl)thiazol-2-yl)-2-cyano-3-(3,4-dihydroxyphenyl)acrylamide] showed a pIC50 on MRE11 of 5.00 to 5.70. The inhibition at 25 µM in the test on DR-GFP U2OS cells was > 75%.

The molecule `Cc1cc(O)ccc1/C=C(\C#N)C(=O)Nc1nc(-c2ccccc2)cs1` [Preparative Example 225, (E)-2-cyano-3-(4-hydroxy-2-methylphenyl)-N-(4-phenylthiazol-2-yl)acrylamide] gave a pIC50 against MRE11 of 4.05 to 5.00. For the same molecule, the inhibition at 25 µM with DR-GFP U2OS cells was < 50%.

Take `Cc1sc(NC(=O)/C(C#N)=C/c2ccc(O)c(O)c2)nc1-c1ccccc1` [Preparative Example 194, (E)-2-cyano-3-(3,4-dihydroxyphenyl)-N-(5-methyl-4-phenylthiazol-2-yl)acrylamide]: the negative-log IC50 (pIC50) against MRE11 was > 5.70. The molecule further returned an inhibition at 25 µM in the test on DR-GFP U2OS cells of 50 to 75%.

Turning to `N#C/C(=C\c1cccc(C(F)(F)F)c1)C(=O)Nc1nc(-c2ccccc2)cs1` [Preparative Example 231, (E)-2-cyano-N-(4-phenylthiazol-2-yl)-3-(3-(trifluoromethyl)phenyl)acrylamide], the pIC50 against MRE11 was 5.00 to 5.70. The inhibition at 25 µM with DR-GFP U2OS cells was < 50%.

For the molecule `COC(=O)c1ccc(-c2csc(NC(=O)/C(C#N)=C/c3ccc(O)c(O)c3)n2)cc1` [Preparative Example 189, Methyl (E)-4-(2-(2-cyano-3-(3,4-dihydroxyphenyl)acrylamido)thiazol-4-yl)benzoate], the pIC50 on MRE11 was > 5.70. This molecule also returned an inhibition at 25 µM in the test on DR-GFP U2OS cells of 50 to 75%.

Turning to `N#C/C(=C\c1cc(Cl)c(O)c(Cl)c1)C(=O)Nc1nc(-c2ccc(Br)cc2)cs1` [Preparative Example 165, (E)-N-(4-(4-bromophenyl)thiazol-2-yl)-2-cyano-3-(3,5-dichloro-4-hydroxyphenyl)acrylamide], on MRE11, the pIC50 was > 5.70. Also, the inhibition at 25 µM with DR-GFP U2OS cells lay within 50 to 75%.

These data come from patent US11584742B2 (MASARYKOVA UNIVERZITA, priority 2018, dated 2023).
